Test results taken from patent US9458122B2, “Process for purifying crude furan 2,5-dicarboxylic acid using hydrogenation” (Eastman Chemical Company, priority 2012, dated 2016).

Test: solubility of FDCA in water at different temperatures
Type: physicochemical
Details: ambient pressure, as water temperature increases beyond 130° C. (FIG. 2)
Experimental: FIG. 2 depicts the solubility of FDCA in water at different temperatures.
Suitable dissolution temperatures are those effective to dissolve the desired amount of FDCA solids into solution. The hydrogenation solvent composition may be added at (by pre-heating) or heated in the dissolution zone to a temperature of at least 120° C. under a pressure and time sufficient to allow for at least 80 wt. % dissolution, although to reduce the time required for dissolution, it is desirable that the hydrogenation solvent composition temperature is at least 130° C., or at least 135° C., or at least 140° C., or at least 150° C.

O=C(O)c1ccc(C(=O)O)o1 [FDCA, Furan 2,5-dicarboxylic acid]
solubility of FDCA in water: increases dramatically
